System: Rhizoctonia solani
Test: Cucumber seed treatment test against Rhizoctonia solani (Test Example 1)
Assay type: in vivo
Settings: cucumber seeds, acetone solution, seven days after seeding
Source text: An emulsifiable concentrate was obtained by mixing clothianidin and metconazole.
In accordance with Seed Treatment Example 5, cucumber (Sagami Hanjiro) seeds were smeared with the emulsifiable concentrate using a rotary seed treating machine (seed dresser, manufactured by Hans-Ulrich Hege GmbH).
The obtained treated seeds were allowed to stand overnight and sown on the soil with which each plastic pot was filled and then covered with the soil mixed with Rhizoctonia solani cultured in a bran culture medium. While sprinkling, culture was conducted in a greenhouse. Seven days after seeding, the number of seeds not showing epicotyl emergence was checked and severity was calculated using Equation 1 shown below. Based on the severity, the control value was calculated using Equation 2.
For comparison, acetone solutions each having a predetermined concentration of clothianidin or metconazole were prepared by mixing each of clothianidin and metconazole with acetone, and the same test was carried out. Severity=(number of seeds not showing epicotyl emergence)×100/(total number of sown seeds) Equation 1 Control value=100×(A−B)/A Equation 2 • A: Severity of plants of the chemical non-treated district • B: Severity of plants of the chemical treated district

SMILES: CN/C(=N\[N+](=O)[O-])NCc1cnc(Cl)s1 [Clothianidin, clothianidin]
- Control value (clothianidin 200 g, metconazole 0 g per 100 kg of seeds): 4

SMILES: CC1(C)CCC(Cc2ccc(Cl)cc2)C1(O)Cn1cncn1 (centres unmarked) [Metconazole, metconazole]
- Control value (clothianidin 0 g, metconazole 1 g per 100 kg of seeds): 39

From patent publication US8524637B2, “Composition for controlling pests and method for controlling pests” (Sumitomo Chemical Company, Limited, priority 2008, dated 2013)
